Test results as given in patent US20230225988A1, “ANTIVIRAL USE OF CALIXARENES” (CEBINA GmbH, priority 2020, published 2023).
Where two headings read alike, the source gives them in different places.

Columns and labels:
[1] = system: HCoV 229E; details: Geller et al., Antiviral Research 2010; cited from earlier work
[2] = system: SARS-CoV-2; test: Microscopic examination of the cytopathogenic effect in SARS-CoV-2 infected Vero E6 cells
[3] = system: human nasal epithelial cells (MucilAir Pool); details: non-infected cells, LDH release from basal wash
[4] = system: influenza H1N1; type: cell-based; details: CX-1 500 μM apical
[5] = system: influenza H1N1; type: cell-based; details: day 4 post infection, CX-1 500 μM versus buffer treated cells (FIG. 5)
[6] = system: SARS-CoV-2; test: PCR quantification of SARS-CoV-2 viral particles in supernatants of infected Vero E6 cells; details: for viral particle number, Sample #1 / viral particle number, Sample #2 / viral particle number, Sample #3: Vero E6, MOI 0.01; for viral particle number, average: average of triplicate
[7] = 24 h post-infection, versus buffer treated cells (FIG. 4 panel A)
[8] = 48 h post infection, versus buffer treated cells (FIG. 4 panel B)
[9] = CX-1 500 μM, 24 h post-infection, prophylactic setting
[10] = CX-1 500 μM, 48 h post-infection, prophylactic setting

| Compound | activity against HCoV 229E [1] | protection of infected cells from dying (cytopathogenic effect, microscopy) ([2]; prophylactic setting, 500, 100 or 20 μM, 48 h post infection (FIG. 1)) | protection of infected cells from dying (cytopathogenic effect, microscopy) ([2]; therapeutic setting, CX-1 added after 30 min infection, 48 h post infection (FIG. 2)) | cytotoxicity [3] | decrease in viral genome copy [4, 7] [log] | reduction in viral genome copy [4, 7] [%] | decrease in viral genome copy [4, 8] [log] | reduction in viral genome copy [4, 8] [%] | cilia beating frequency [5] | reduction in viral genome copy number ([6]; 50 μM CX-1, preventive setting (FIG. 3)) [%] | viral particle number, Sample #1 [6, 9] [viral particle number/μl] | viral particle number, Sample #2 [6, 9] [viral particle number/μl] | viral particle number, Sample #3 [6, 9] [viral particle number/μl] | viral particle number, average [6, 9] [viral particle number/μl] | viral particle number, Sample #1 [6, 10] [viral particle number/μl] | viral particle number, Sample #2 [6, 10] [viral particle number/μl] | viral particle number, Sample #3 [6, 10] [viral particle number/μl] | viral particle number, average [6, 10] [viral particle number/μl] | potency (reduction in viral particles) ([6]; CX-1 500 μM, 48 h post-infection, prophylactic setting, versus virus only) [%] | reduction in viral genome copy number ([6]; lower dilutions of CX-1, preventive setting, versus infected non-treated control (FIG. 3)) |
| --- | --- | --- | --- | --- | --- | --- | --- | --- | --- | --- | --- | --- | --- | --- | --- | --- | --- | --- | --- | --- |
| 1,3-bis(bithiazolyl)-tetra-para-sulfonato-calix[4]arene [C[4]S-BTZ] | very effective |  |  |  |  |  |  |  |  |  |  |  |  |  |  |  |  |  |  |  |
| O=S(=O)(O)c1cc2c(O)c(c1)Cc1cc(S(=O)(=O)O)cc(c1O)Cc1cc(S(=O)(=O)O)cc(c1O)Cc1cc(S(=O)(=O)O)cc(c1O)C2 [CX-1, 5,11,17,23-sulfonato-25,26,27,28-tetrahydroxycalix[4]arene] |  | significantly protected from dying | significantly protected from dying | no cytotoxicity | −0.9 | 88 | ~0.8 | 80.5 | significantly higher | 30 | 0.00 | 0.00 | 1.48 | 0.49 | 11.10 | 15.00 | 8.63 | 11.57 | 95 | over 90% |
| O=S(=O)(O)c1cc2c(O)c(c1)Cc1cc(S(=O)(=O)O)cc(c1O)Cc1cc(S(=O)(=O)O)cc(c1O)Cc1cc(S(=O)(=O)O)cc(c1O)C2 [C[4]S, tetra-para-sulfonato-calix[4]arene] | only very weak activity |  |  |  |  |  |  |  |  |  |  |  |  |  |  |  |  |  |  |  |
